# Where two headings read alike, the source gives them in different places. Non-standard residues stand in square brackets, D forms with d. Residues, ends and D or L forms follow the SMILES beside them. dPhe(4-Cl) = N[C@H](Cc1ccc(Cl)cc1)C(=O)O; dOrn = NCCC[C@@H](N)C(=O)O
# How the values were obtained:
# [1] = Chemi-Luminescent Nitrogen Detection (CLND) kinetic solubility assay; format: physicochemical; conditions: phosphate buffered saline, pH 7.4; kinetic aqueous solubility by CLND; read-out: Solubility
# Description: GSK in-house kinetic solubility assay: 5 μL of 10mM DMSO stock solution diluted to 100 uL with pH7.4 phosphate buffered saline, equilibrated for 1 hour at room temperature, filtered through Millipore Multiscreen HTS-PCF filter plates (MSSL BPC).
# The filtrate is quantified by suitably calibrated flow injection CLND. The standard error of the CLND solubility determination is ±30 μM, the upper limit of the solubility is 500 μM when working from 10 mM DMSO stock solution.
# Chrom logD assay = format: physicochemical; conditions: pH 7.4, read-out: Log D
# Description: The Chromatographic Hydrophobicity Index (CHI) values were measured using a reversed phase HPLC column (50 x 2 mmx 3 μMGemini NX C18, Phenomenex, UK) with fast acetonitrile gradient at starting mobile phase of 100% pH = 7.4 buffer. CHI values are derived directly from the gradient retention times by using a calibration line obtained for standard compounds. The CHI value approximates to the volume % organic concentration when the compound elutes. CHI is linearly transformed into ChromlogD by the formula: ChromlogD=0.0857CHI−2.00
# The average error of the assay is ±3 CHI unit or ±0.25 ChromlogD.
# [2] = Artificial membrane permeability assay; format: in vitro ADME; conditions: PAMPA, pH 7.4; passive artificial membrane permeability; read-out: Permeability
# Description: A 8% L-a-phosphatidylcholine (EPC) in 1% cholesterol decane solution and a 1.8% EPC in cholesterol decane solution were prepared. The lipid solution was then aliquoted into 4 mL capped vials, sealed with parafilm and stored in-20°Cfreezer. The lipid solution was then transferred from 4 mL vial into 96-well half area plate (130μL/well) for daily assay usage. An additional 50 mM phosphate buffer with 0.5% encapsin, pH at 7.4 was prepared. The assay was run by the Biomek FX and Biomek software. The assay procedure is written under the Biomek software. For one batch assay, it can test two 96-well sample plates with at least one standard on each sample plate. The total assay time was about 4 hours. 3.5 μL of lipid solution were added to the filler plate, shaken for 12 seconds, and 250 μL of buffer were added to donor side and 100 μL to the receiver side. The assay plate was shaken for 45 min before adding the compounds. The test compounds (2.5 μL) were added to the donor side. The assay was run as replicates: Assay plates1 and 2 tested the sample plate 1; assay plates 3 and 4 tested the sample plate 2. The assay plates were then incubated and shaken for 3 hours at room temperature.
# The assay samples were transferred to the HPLC analysis plates and 100 μL of receiver solution were aspirated and transferred to the receiver for analysis. Similarly, another 100 μL from the donor solution were transferred to the donor analysis plate.
# Compound concentration was measured by HPLC at different time-points and permeability was established as nm/sec.
# human serum albumin = human serum albumin (Homo sapiens, UniProt P02768); assay: Human serum albumin (HSA) binding assay; format: in vitro ADME; conditions: human serum albumin binding
# Description: HSA binding assay was performed according to the method described by Valko K, et al. The basic principle of the measurements is the determination of gradient retention times of compounds on immobilized HSA column and converting these retention times to the appropriate property values using calibration. The peaks are detected and identified by UV. Calibration sets of compounds are measured before each run for which the HSA binding values are known. The retention times of the calibration set of compounds are plotted against these known values. The slope and the intercept of the obtained straight lines are used to calculate the HSA binding for the unknown compounds.
# [3] = Plasma stability assay, mouse plasma; format: in vitro ADME; conditions: CD1, mouse, plasma; 2 hours at 37°C, triplicates; read-out: Plasma stability (% remaining) Mouse
# Description: (§1) Plasma stability of the compounds was assessed in CD1 mouse and human plasma. Plasma was spiked with 1 μL of a 10 mM of each test compound solution to produce a 1 uM incubation. Three separate 300 μl aliquots were then taken from each tube and incubated at 37°C for 2 h. At each time point (0, 15, 30, 60 and 120 min), 50 μL of plasma were collected from each sample. Samples were extracted by protein precipitation with 250 μL of 0.1% AcOH acetonitrile methanol 3–1 (v/v) containing 1uM internal standard and centrifuged for 10min at 2800rpm. Supernatants were collected prior the injection onto an LC-MS/MS system. Analyte/Internal standard peak area ratios were referenced to the zero time-point samples as 100% in order to determine the percentage of compound remaining for each time-point. Ln plots of the % remaining for each compound were used to determine the half-life for the plasma incubations.
# [4] = Plasma stability assay, human plasma; format: in vitro ADME; conditions: human, plasma; 2 hours at 37°C, triplicates; read-out: Plasma stability (% remaining) Human
# Description: as §1
# [5] = Intrinsic clearance (CLint) assay, mouse liver microsomes; format: in vitro ADME; conditions: for % LBF Mouse: liver blood flow; for CLint Mouse: mouse liver microsomes; for half-life at 0.5 µM: mouse, pooled mouse liver microsomes, pH 7.4, read-out: Microsomal t1/2 Mouse; for CLpred Mouse: predicted metabolic clearance
# Description: (§2) Pooled mouse and human liver microsomes are purchased from Xenotech. Microsomes (final protein concentration 0.5 mg/mL, MgCl2 (final concentration = 5 mM) and test compound (final substrate concentration = 0.5] M; final DMSO concentration = 0.5%) in 0.1 M phosphate buffer pH 7.4 are pre-incubated at 37°C prior to the addition of NADPH (final concentration = 1 mM) to initiate the reaction. The final incubation volume is 600 μL.
# (§3) Control incubation is included for each compound tested where 0.1 M phosphate buffer pH 7.4 is added instead of NADPH (minus NADPH). One control compound is included with each species. All incubations are performed singularly for each test compound. Each compound is incubated for 45 minutes and samples (100 μL) of incubate are taken at 0, 5, 15, 30 and 45 min. The control (minus NADPH) is sampled at 30 min only. The reactions are stopped by the addition of sample to 200 μL Acetonitrile: Methanol 3:1 containing internal standard. The terminated samples are centrifuged at 2,500 rpm for 20 min at 4°C to precipitate the protein. Quantitative analysis: following protein precipitation, the samples were analyzed using specific LC-MS/MS conditions. Data analysis: from a plot of ln peak area ratio (compound peak area/internal standard peak area) against time, the gradient of the line was determined. Subsequently, half-life and intrinsic clearance were calculated using the equations below: Eliminationrateconstant(K)=(−gradient) Halflife(t1/2)(min)=0.693/K Cli(mL/min/gprotien)=V×0.693/t1/2 WhereV=Incubationvolume(mL/gmicrosomalprotien)
# [6] = Intrinsic clearance (CLint) assay, human liver microsomes; format: in vitro ADME; conditions: for CLint Human: human liver microsomes; for half-life at 0.5 µM: human, pooled human liver microsomes, pH 7.4, human liver microsomes, read-out: Microsomal t1/2 Human; for % LBF Human: liver blood flow; for CLpred Human: predicted metabolic clearance
# Description: as §2, §3
# Mtb H37Rv = conditions: for antimycobacterial activity against Mtb H37Rv: at the maximum dose tested; for MIC against Mtb H37Rv: duplicate, analogues
# [7] = reversed phase HPLC column (Gemini NX C18)
# Sequence of human serum albumin (P02768 25-609): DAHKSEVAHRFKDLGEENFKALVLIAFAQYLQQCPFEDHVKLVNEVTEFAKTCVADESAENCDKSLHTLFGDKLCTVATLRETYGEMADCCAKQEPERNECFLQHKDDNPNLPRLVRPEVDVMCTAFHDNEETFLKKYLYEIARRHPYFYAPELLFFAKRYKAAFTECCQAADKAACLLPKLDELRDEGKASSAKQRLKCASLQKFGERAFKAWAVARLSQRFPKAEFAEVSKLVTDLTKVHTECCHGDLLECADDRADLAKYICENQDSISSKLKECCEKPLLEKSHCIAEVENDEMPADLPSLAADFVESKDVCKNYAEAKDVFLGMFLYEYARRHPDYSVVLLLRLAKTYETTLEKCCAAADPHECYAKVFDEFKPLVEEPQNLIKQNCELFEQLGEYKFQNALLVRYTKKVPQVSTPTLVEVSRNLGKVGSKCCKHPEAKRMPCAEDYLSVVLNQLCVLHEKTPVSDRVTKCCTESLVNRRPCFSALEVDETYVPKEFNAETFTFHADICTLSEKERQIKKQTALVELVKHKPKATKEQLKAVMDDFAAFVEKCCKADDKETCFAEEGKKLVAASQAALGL
Compound,solubility kinetic at 1 h [1] [µg/mL],chromatographic logD (Chrom logD assay),Papp at 3 h [2] [×10⁻⁶ cm/s],% HSA (human serum albumin) [%],"remaining at 2 h, 1 uM [3] [%]","remaining at 2 h, 1 uM [4] [%]",% LBF Mouse [5] [%],CLint Mouse [5] [mL/min/g tissue],half-life at 0.5 µM [5] [min],CLpred Mouse [5] [mL/min/kg],CLint Human [6] [mL/min/g tissue],half-life at 0.5 µM [6] [min],% LBF Human [6] [%],CLpred Human [6] [mL/min/kg],chromatographic logD (Chrom logD assay; [7]),antimycobacterial activity against Mtb H37Rv (Mtb H37Rv),MIC against Mtb H37Rv (Mtb H37Rv) [µM]
CC[C@H](C)[C@@H]1NC(=O)[C@@H](CC(C)C)NC(=O)[C@H](CC(C)C)NC(=O)[C@H](Cc2c[nH]c3ccccc23)NC(=O)[C@@H](CCCN)NC(=O)[C@H](CC(N)=O)NC1=O [Compound 7c] (cyclo(IN[dOrn]WL[dL])),≥ 177,1.83,< 1,76.35,98,99,<16.27,<0.48,> 139,<20.50,1.70,32.4,69.81,12.57,–,–,–
CSCC[C@@H]1NC(=O)[C@@H](CC(C)C)NC(=O)[C@H](CC(C)C)NC(=O)[C@H](Cc2c[nH]c3ccccc23)NC(=O)[C@@H](CCCN)NC(=O)[C@H](CC(N)=O)NC1=O [Compound 8c] (cyclo(L[dL]MN[dOrn]W)),≥ 164,–,< 1,73.79,–,–,<16.30,<0.48,> 139,–,1.79,30.7,70.90,12.76,1.78,complete loss of activity,>80
CC[C@H](C)[C@@H]1NC(=O)[C@H]([C@@H](C)CC)NC(=O)[C@@H](CC(C)C)NC(=O)[C@H](CC(C)C)NC(=O)[C@H](Cc2c[nH]c3ccccc23)NC(=O)[C@@H](CCCN)NC1=O [Compound 12c] (cyclo(II[dOrn]WL[dL])),≥ 206,–,1.9,96.06,–,–,<16.39,<0.48,> 139,<20.50,5.93,9.28,88.98,16.02,2.94,–,3.1
CC(C)C[C@H]1NC(=O)[C@@H](Cc2ccc(Cl)cc2)NC(=O)[C@H](Cc2c[nH]c3ccccc23)NC(=O)[C@@H](CCCN)NC(=O)[C@H](CC(N)=O)NC(=O)[C@H](C(C)C)NC1=O [Compound 17c] (cyclo(N[dOrn]W[dPhe(4-Cl)][dL]V)),≥ 230,–,1.7,93.83,–,–,17.9,0.54,124,22.60,<0.40,> 139,<35.08,<6.35,2.12,–,30
CC[C@H](C)[C@@H]1NC(=O)[C@@H](Cc2ccc(Cl)cc2)NC(=O)[C@H](CC(C)C)NC(=O)[C@H](Cc2c[nH]c3ccccc23)NC(=O)[C@@H](CCCN)NC(=O)[C@@H](CCCN)NC1=O [Compound 18c] (cyclo(I[dOrn][dOrn]WL[dPhe(4-Cl)])),7,–,8,98.70,–,–,28.4,0.98,67.9,35.80,1.06,51.7,59.15,10.65,–,–,17.5
CC[C@H](C)[C@@H]1NC(=O)[C@H](Cc2c[nH]c3ccccc23)NC(=O)[C@@H](CCCN)NC(=O)[C@H](CC(N)=O)NC(=O)[C@H](C(C)C)NC(=O)[C@@H](CC(C)C)NC1=O [Compound 19c] (cyclo(I[dL]VN[dOrn]W)),≥ 183,–,< 1,67.10,–,–,<16.3,<0.48,> 139,<20.50,<0.40,> 139,<35.08,<6.35,1.73,–,7.5
CC[C@H](C)[C@@H]1NC(=O)[C@H](CC(C)C)NC(=O)[C@H](Cc2c[nH]c3ccccc23)NC(=O)[C@@H](CCCN)NC(=O)[C@H](CC(N)=O)NC(=O)[C@H](C(C)C)NC1=O [Compound 20c] (cyclo(IVN[dOrn]WL)),≥ 195,–,< 0.3,83.67,–,–,<16.3,<0.48,> 139,<20.50,<0.40,> 139,<35.08,<6.35,1.83,completely abolished the activity,>80

# — article PMC5397059, “Design, synthesis and structure-activity relationship study of wollamide B; a new potential anti TB agent” (PLoS ONE, 2017)
